# Values quoted from earlier work in patent US8507011B2, “Method for suppressing or preventing fibrous adhesion formation using a multicomponent aqueous oxychlorine composition prepared on-site” (priority 2009, dated 2013).
# Assays:
# adhesion = settings: interperitoneal infusion, rats
# wound = settings: 0.01% concentration
pKa,SMILES,Adhesion suppression versus control (in words) (adhesion),Wound irrigant activity (in words) (wound)
–,CN(C)c1ccc2nc3ccc(=[N+](C)C)cc-3sc2c1 [methylene blue],none were found between methylene blue and control,–
about 7.5,OCl [hypochlorous acid],–,showed promise as an effective antimicrobial wound irrigant
